According to patent US7732451B2, “Naphthalene-containing melanocortin receptor-specific small molecule” (Palatin Technologies, Inc., priority 2002, dated 2010):

Assays:
hMC3-R = target: T1, hMC3-R (Homo sapiens, UniProt P41968); assay: competitive inhibition binding assay, 125I-NDP-α-MSH, membranes
T1 construct: expressed in transfected cells
Description: (§1) A competitive inhibition binding assay was conducted using membranes prepared from hMC3-R, hMC4-R, hMC5-R, and B-16 mouse melanoma cells (containing MC1-R) using 0.4 nM ^125I-NDP-α-MSH (New England Nuclear, Boston, Mass., USA) in 50 mM HEPES buffer containing 1 mM MgCl2, 2 mM CaCl2, and 5 mM KCl, at pH 7.2. The assay tube also contained a chosen concentration of the test compound of this invention, for determining its efficacy in inhibiting the binding of ^125I-NDP-α-MSH to its receptor.
(§2) Incubation was for 90 minutes at room temperature, after which the assay mixture was filtered and the membranes washed three times with ice cold buffer. The filter was dried and counted in a gamma counter for remaining radioactivity bound to the membranes. 100% specific binding was defined as the difference in radioactivity (cpm) bound to cell membranes in the absence and presence of 1 μM α-MSH. […] Each assay was conducted in triplicate and the actual mean values are described. The Ki (nM) of certain compounds of the invention were determined.

hMC4-R = target: T2, hMC4-R (Homo sapiens, UniProt P32245); assay: as above
T2 construct: expressed in transfected cells
T2 sequence (P32245 whole entry): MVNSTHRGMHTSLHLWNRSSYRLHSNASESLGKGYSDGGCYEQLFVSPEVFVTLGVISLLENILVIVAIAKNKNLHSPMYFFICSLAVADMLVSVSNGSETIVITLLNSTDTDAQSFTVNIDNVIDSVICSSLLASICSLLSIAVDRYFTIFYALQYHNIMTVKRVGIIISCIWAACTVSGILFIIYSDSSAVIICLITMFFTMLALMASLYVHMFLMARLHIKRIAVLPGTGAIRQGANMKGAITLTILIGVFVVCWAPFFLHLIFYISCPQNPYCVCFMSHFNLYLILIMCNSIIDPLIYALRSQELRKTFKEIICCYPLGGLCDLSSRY
Description: as §1, §2

hMC5-R = target: T3, hMC5-R (Homo sapiens, UniProt P33032); assay: as above
T3 construct: expressed in transfected cells
T3 sequence (P33032 whole entry): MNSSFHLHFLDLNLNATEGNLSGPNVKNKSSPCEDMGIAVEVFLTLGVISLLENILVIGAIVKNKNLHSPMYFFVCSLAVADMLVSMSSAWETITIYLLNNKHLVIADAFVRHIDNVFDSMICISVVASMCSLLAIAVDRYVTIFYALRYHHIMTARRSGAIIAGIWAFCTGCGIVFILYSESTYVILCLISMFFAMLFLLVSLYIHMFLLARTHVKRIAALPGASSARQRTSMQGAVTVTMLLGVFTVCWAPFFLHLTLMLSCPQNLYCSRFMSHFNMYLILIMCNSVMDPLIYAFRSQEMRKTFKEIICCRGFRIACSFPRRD
Description: as §1, §2

[1] = target: T4, MC1-R (B-16 mouse melanoma cells) (Mus musculus, UniProt Q01727); assay: as above
T4 construct: B-16 mouse melanoma cells (containing MC1-R); endogenous in cells; host or cells: B-16 mouse melanoma cells
T4 sequence (Q01727 whole entry): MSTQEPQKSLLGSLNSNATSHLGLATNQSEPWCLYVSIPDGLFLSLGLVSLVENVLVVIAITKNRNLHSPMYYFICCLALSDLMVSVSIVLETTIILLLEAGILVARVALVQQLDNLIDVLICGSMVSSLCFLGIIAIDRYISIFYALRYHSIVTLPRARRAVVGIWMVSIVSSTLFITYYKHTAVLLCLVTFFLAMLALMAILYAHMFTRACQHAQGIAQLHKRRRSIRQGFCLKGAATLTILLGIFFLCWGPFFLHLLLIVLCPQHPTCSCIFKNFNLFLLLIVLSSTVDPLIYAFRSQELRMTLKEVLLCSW
Description: as §1, §2

[2] = penile erection (PE) studies in male rats; assay type: in vivo, rat; settings: IV, dose levels of 0.3, 3 and 30 μg/Kg
Description: The ability of compounds to induce penile erection (PE) in male rats was evaluated with selected compounds. Male Sprague-Dawley rats weighing 200-250 g were kept on a 12 hour on/off light cycle with food and water ad libitum. All behavioral studies were performed between 10 a.m. and 5 p.m. Groups of 4-8 rats were treated with compounds at a variety of doses via intravenous (IV) or intracerebroventricular (ICV) routes. Immediately after treatment, rats were placed into individual polystyrene cages (27 cm long, 16 cm wide, and 25 cm high) for behavioral observation. The iv and icv treated rats were observed respectively for 30 minutes and 120 min and the number of yawns, grooming bouts and PEs were recorded in 10-minute bins.

[3] = target: T5, MC4-R (HEK-293 cells expressing MC4-R) (Homo sapiens, UniProt P32245); assay: cAMP assay for agonist/antagonist status; assay type: cell-based; settings: antagonism = inhibition of α-MSH-induced cAMP
T5 construct: expressed in transfected cells; host or cells: HEK-293
T5 sequence (P32245 whole entry): as the sequence (P32245 whole entry) above
Description: (§3) Functional evaluation of compounds at melanocortin receptors was performed by measuring the accumulation of intracellular cAMP in HEK-293 cells expressing MC3-R, MC4-R or MC5-R, and in B-16 mouse melanoma cells (containing MC1-R). Cells, suspended in Earle's Balanced Salt Solution containing 10 mM HEPES, pH 7.5, 5 mM MgCl2, 1 mM glutamine, 0.1% albumin and 0.6 mM 3-isobutyl-1-methyl-xanthine, a phosphodiesterase inhibitor, were plated in 96 well plates at a density of 0.5×10^5 cells per well. Cells were incubated with the test compounds in the presence or absence of α-MSH for 1 hour at 37° C. cAMP levels were measured by EIA (Amersham) in the cell lysates. Data analysis and EC50 values were determined using nonlinear regression analysis with Prism Graph-Pad software.
(§4) The agonist/antagonist status with respect to MC4-R of certain compounds of the invention was determined. Antagonistic activity was determined by measuring the inhibition of α-MSH-induced cAMP levels following exposure to the compounds as in Example 2.

[4] = target: T6, MC5-R (HEK-293 cells expressing MC5-R) (Homo sapiens, UniProt P33032); assay: cAMP assay for agonist/antagonist status; assay type: cell-based; settings: antagonism = inhibition of α-MSH-induced cAMP
T6 construct: expressed in transfected cells; host or cells: HEK-293
T6 sequence (P33032 whole entry): as the sequence (P33032 whole entry) above
Description: as §3, §4

[5] = target: T4, MC1-R (B-16 mouse melanoma cells); assay: cAMP assay for agonist/antagonist status; assay type: cell-based; settings: antagonism = inhibition of α-MSH-induced cAMP
Description: as §3, §4

[6] = IV feeding studies, change in food intake and body weight; assay type: in vivo, rat; settings: 3 μg/Kg, male Sprague-Dawley rats
Description: Change in food intake and body weight was evaluated for selected compounds. Male Sprague-Dawley rats weighing ˜300 g at the beginning of the experiment were kept on a 12 hour on/off light cycle. Lights out was adjusted to 12:00 p.m. to allow for dosing just prior to the start of their dark period. Rats (8-12/group) were fed powdered chow and water ad libitum. For 1 week before treatment, 24-hour food intake and body weight change was recorded to assess a baseline for the group during vehicle treatment. […] The changes in body weight and food intake for the 24 hour period after dosing were determined. The changes in body weight and food intake for the 48 hour period, and in same cases for 72 hours as well, after dosing were also measured to determined reversal of changes in body weight and food intake effect back to baseline.

[7] = ICV feeding studies, change in food intake and body weight; assay type: in vivo, rat; settings: 1 nmol, male Sprague-Dawley rats
Description: Change in food intake and body weight was evaluated for selected compounds. Male Sprague-Dawley rats weighing ˜300 g at the beginning of the experiment were kept on a 12 hour on/off light cycle. Lights out was adjusted to 12:00 p.m. to allow for dosing just prior to the start of their dark period. Rats (8-12/group) were fed powdered chow and water ad libitum. For 1 week before treatment, 24-hour food intake and body weight change was recorded to assess a baseline for the group during vehicle treatment. The rats were dosed ICV with vehicle or selected compounds (1-3 nmol). The changes in body weight and food intake for the 24 hour period after dosing were determined. The changes in body weight and food intake for the 48 hour period, and in same cases for 72 hours as well, after dosing were also measured to determined reversal of changes in body weight and food intake effect back to baseline.

T1 sequence (P41968 whole entry): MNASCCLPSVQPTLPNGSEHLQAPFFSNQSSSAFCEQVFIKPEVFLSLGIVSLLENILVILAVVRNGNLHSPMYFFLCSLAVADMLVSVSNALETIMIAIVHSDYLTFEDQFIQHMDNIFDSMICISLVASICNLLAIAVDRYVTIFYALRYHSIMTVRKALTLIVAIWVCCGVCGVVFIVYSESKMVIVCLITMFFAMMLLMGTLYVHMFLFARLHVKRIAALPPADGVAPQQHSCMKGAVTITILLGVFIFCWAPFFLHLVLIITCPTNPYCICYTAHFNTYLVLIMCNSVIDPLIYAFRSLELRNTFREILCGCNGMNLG

C[C@@H]1CN(C(=O)[C@H](N)Cc2ccc(Cl)cc2)[C@@H](CCCNC(=N)N)CN1CCc1ccc2ccccc2c1 [Example 15, N-{3-[1-[2(R)-Amino-3-(4-chloro-phenyl)-propionyl]-5(R)-methyl-4-(2-naphthalen-2-yl-ethyl)-piperazin-2(S)-yl]-propyl}-guanidine]
inhibition at 1 µM (hMC3-R; 1 μM compound, average of triplicates, read-out: Inhibition at 1 μM MC3-R): 61% | Ki (hMC3-R; read-out: Ki (nM) MC3-R): 160 nM | inhibition at 1 µM (hMC4-R; 1 μM compound, average of triplicates, read-out: Inhibition at 1 μM MC4-R): 97% | Ki (hMC4-R; read-out: Ki (nM) MC4-R): 11 nM | inhibition at 1 µM (hMC5-R; 1 μM compound, average of triplicates, read-out: Inhibition at 1 μM MC5-R): 52% | Ki (hMC5-R; read-out: Ki (nM) MC5-R): 551 nM | inhibition at 1 µM ([1]; 1 μM compound, average of triplicates, results less than 0% reported as 0%): 85% | Ki ([1]; read-out: Ki (nM) MC1-R): 94 nM | PE effect [2]: no observed effect | agonist/antagonist status as to MC4-R [3]: agonist | agonist/antagonist status as to MC5-R [4]: agonist | agonist/antagonist status as to MC1-R [5]: agonist | 24 hour change in food intake [6]: -9.6 g | change in weight ([6]; 24 hour): -6.6 g | 24 hour change in food intake [7]: -3.9 g | change in weight ([7]; 24 hour): -3.9 g
